In the assay the target is T1, ανβ3 (the vitronectin receptor) (Homo sapiens, UniProt P05106+P06756).
T1 construct: Human placenta or human platelet ανβ3 (0.1-0.3 mg/mL) in buffer T; from tissue; host or cells: human placenta or human platelets
As to the kind of experiment: Solid-Phase [3H]-SK&F-107260 Binding to ανβ3 (inhibition of vitronectin binding). The following applies: read-out: inhibits [3H]-SK&F-107260 binding to ανβ3 at a concentration. Here is the method: Inhibition of vitronectin binding
Solid-Phase [^3H]-SK&F-107260 Binding to ανβ3: Human placenta or human platelet ανβ3 (0.1-0.3 mg/mL) in buffer T (containing 2 mM CaCl2 and 1% octylglucoside) was diluted with buffer T containing 1 mM CaCl2, 1 mM MnCl2, 1 mM MgCl2 (buffer A) and 0.05% NaN3, and then immediately added to 96-well ELISA plates (Corning, New York, N.Y.) at 0.1 mL per well. 0.1 - 0.2 μg of ανβ3 was added per well. The plates were incubated overnight at 4° C. At the time of the experiment, the wells were washed once with buffer A and were incubated with 0.1 mL of 3.5% bovine serum albumin in the same buffer for 1 hr at room temperature. Following incubation the wells were aspirated completely and washed twice with 0.2 mL buffer A. […]
The plates were incubated for 1 hr at room temperature. […] The receptors were solubilized with 0.1 mL of 1% SDS and the bound f^3H]-SK&F-107260 was determined by liquid scintillation counting with the addition of 3 mL Ready Safe in a Beckman LS Liquid Scintillation Counter, with 40% efficiency. Nonspecific binding of [^3H]-SK&F-107260 was determined in the presence of 2 μM SK&F-107260 and was consistently less than 1% of total radioligand input. […]

pIC50: −log10 of the molar value.

T1 sequence (P06756 31-889 limits assumed): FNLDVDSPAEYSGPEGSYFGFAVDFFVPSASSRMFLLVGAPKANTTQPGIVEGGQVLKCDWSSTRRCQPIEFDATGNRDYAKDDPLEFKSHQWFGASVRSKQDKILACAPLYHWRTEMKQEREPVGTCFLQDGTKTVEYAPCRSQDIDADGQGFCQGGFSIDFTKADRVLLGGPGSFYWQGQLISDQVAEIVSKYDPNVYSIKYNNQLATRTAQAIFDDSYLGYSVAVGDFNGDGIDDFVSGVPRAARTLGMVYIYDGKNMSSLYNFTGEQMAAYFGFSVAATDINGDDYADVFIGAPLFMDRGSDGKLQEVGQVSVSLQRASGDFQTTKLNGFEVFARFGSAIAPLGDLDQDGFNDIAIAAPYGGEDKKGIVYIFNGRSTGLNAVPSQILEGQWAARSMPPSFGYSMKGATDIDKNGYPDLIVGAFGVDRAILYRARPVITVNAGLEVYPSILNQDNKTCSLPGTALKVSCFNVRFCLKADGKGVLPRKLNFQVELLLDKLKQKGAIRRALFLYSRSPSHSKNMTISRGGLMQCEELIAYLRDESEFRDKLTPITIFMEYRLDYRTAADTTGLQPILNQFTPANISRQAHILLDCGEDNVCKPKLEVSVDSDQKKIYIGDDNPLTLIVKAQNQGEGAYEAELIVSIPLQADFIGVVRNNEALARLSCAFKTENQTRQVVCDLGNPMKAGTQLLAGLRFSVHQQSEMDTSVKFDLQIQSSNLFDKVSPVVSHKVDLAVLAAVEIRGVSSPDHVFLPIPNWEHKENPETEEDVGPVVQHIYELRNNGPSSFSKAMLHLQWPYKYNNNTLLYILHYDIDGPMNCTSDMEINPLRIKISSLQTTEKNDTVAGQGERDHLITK
T1 sequence (P06756 891-1048 partner limits assumed): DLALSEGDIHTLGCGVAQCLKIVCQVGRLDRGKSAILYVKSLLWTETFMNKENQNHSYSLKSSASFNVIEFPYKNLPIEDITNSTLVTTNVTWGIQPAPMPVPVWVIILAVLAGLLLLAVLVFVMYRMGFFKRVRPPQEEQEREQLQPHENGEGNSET
T1 sequence (P05106 27-788): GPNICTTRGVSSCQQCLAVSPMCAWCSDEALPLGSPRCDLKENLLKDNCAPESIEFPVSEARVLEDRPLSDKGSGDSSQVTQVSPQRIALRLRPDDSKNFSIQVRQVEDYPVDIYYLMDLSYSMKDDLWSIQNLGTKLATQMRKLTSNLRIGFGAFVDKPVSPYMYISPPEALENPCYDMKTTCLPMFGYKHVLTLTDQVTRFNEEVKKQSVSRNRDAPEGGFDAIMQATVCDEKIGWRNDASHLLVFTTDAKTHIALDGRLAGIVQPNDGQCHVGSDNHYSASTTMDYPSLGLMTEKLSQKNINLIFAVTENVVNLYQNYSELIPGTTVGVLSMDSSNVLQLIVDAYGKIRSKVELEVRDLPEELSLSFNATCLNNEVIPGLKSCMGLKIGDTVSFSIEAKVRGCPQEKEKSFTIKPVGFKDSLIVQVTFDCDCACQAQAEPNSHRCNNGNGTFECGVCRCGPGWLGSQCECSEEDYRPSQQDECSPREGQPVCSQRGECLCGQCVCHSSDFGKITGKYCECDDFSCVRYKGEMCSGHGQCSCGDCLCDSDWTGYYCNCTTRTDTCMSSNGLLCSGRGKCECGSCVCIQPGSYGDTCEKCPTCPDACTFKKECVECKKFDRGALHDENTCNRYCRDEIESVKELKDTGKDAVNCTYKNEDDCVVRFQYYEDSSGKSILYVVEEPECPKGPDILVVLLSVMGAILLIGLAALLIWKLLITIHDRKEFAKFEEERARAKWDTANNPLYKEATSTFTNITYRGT

For `Cc1ccnc(NCCCOc2ccc3c(c2)CN(Cc2ccc(C(F)(F)F)cc2)C(=O)[C@H](CC(=O)O)C3)c1` [Example 1, (S)-8-[3-(4-methylpyridin-2-ylamino)-1-propyloxy]-3-oxo-2-[4-(trifluoromethyl)benzyl]-2,3,4,5-tetrahydro-1 H-2-benzazepine-4-acetic acid], the pIC50 is around 8.52.

Source of the values: US20010014737A1, “Vitronectin receptor antagonist” (priority 1997, published 2001).
